Results: patent publication US20120328605A1, “COMPOSITIONS AND USES” (priority 2010, published 2012)

What was measured:
Lineage-CD11b+ monocytes = assay: Monocyte analysis and counting after adjuvant injection in mice; format: in vivo, C57BL/6 mice
Method: (§1) 24-Hours after injection of the TLR adjuvants, peripheral blood was drawn from C57BL/6 mice via cardiac puncture with lithium-heparin as anticoagulant. Red blood cell lysis was performed twice on pooled blood with Ammonium Chloride-based Buffer (Sigma, Steinheim, Germany) and cells were counted with the EasyCount™ System (Immunicon). […] Cells were finally washed three times and fixed for 15 min. with a 2% paraformaldehyde solution in PBS. Fluorescence minus one (FMO) controls were always included in the assays for fluorescent compensation setting. Samples were acquired on a flow cytometer (BD FACSCanto II) and data analyzed with the FACSDiva software (BD Biosciences). Monocytes were identified by their Side/Forward scatter properties and gated as CD3-/CD45R/B220-/Ly-6G-/NK1.1-(Lineage-)/CD11b+ cells. CD11b+ monocyte frequency was reported as a percentage of the total cells excluding debris.
as §1, with “24 hours” for “24-Hours”, “each immunomodulator,” for “the TLR adjuvants,”, “min” for “min.”, “monocytes” for “monocyte”

APPSwe/PS1 mice = assay: T-water maze; format: in vivo
Method: Five groups of APPSwe/PS1 mice received one a week for a period of 12 weeks the following treatment: • Gr1: APPSwe/PS1+NaCl 0.9% n(=20), i.p. injections • Gr4: APPSwe/PS1+CRX527 (20 μg/mouse, 130 μl, n=10), i.p. injections • Gr5: […] (50 μg/mouse, 130 μl, n=10), i.p. injections • Gr8 APPSwe/PS1+AS15 ( 1/10th of human dose, 50 μl, n=10), i.m. injections • Gr9: APPSwe/PS1+AS01B ( 1/10th of human dose, 50 μl, n=10), i.m. injections
Mice were tested during the “light on” phase of the day. Behavioral experimenter was blinded to the genetic and treatment status of animals. To assess hippocampal-dependent spatial learning and memory, mice were trained in the T-water maze task. In this paradigm, we evaluate the mouse's ability to remember the spatial location of submerged platform. The T-maze apparatus (length of stem, 64 cm; length of arms, 30 cm; width, 12 cm; height of walls, 16 cm) was made of clear fiberglass and filled with water (23±1° C.) at a height of 12 cm. A platform (11×11 cm) was placed at the end of the target arm and was submerged 1 cm below the surface. The acquisition phase allows to evaluate animals for left-right spatial learning. During the first two trials, platforms were placed on each arms of the maze to test the spontaneous turning preference of the mouse. After these two trials, the least chosen arm was reinforced by the escape platform. The mice were placed in the stem of the T-maze and choose to swim either left or right until they found the submerged platform and escape to it, to a maximum of 60 s. After reaching the platform, the mice remained on it for 20 s and then were immediately placed back in the maze. […] Repeated trials were presented on the same day up to a maximum of 48 trials. A rest period of at least 10-15 min intervened between each block of 10 trials. A mouse was considered to have learned the task when it made no errors in a block of five consecutive trials. […] The number of trials to reach the criterion (five of five correct choices made on consecutive trials) was measured as well as the latency to find the escape platform.

[1] = single i.m. injection, 24 hrs, FIG. 12

For `CCCCCCCCCCC[C@H](CC(=O)N[C@H]1[C@H](OC[C@H](NC(=O)C[C@@H](CCCCCCCCCCC)OCCCCCCCCCC)C(=O)O)O[C@H](CO)[C@@H](OP(=O)(O)O)[C@@H]1OC(=O)C[C@@H](CCCCCCCCCCC)OCCCCCCCCCC)OCCCCCCCCCC` [CRX601], the “circulating monocytes numbers following injection” value (Lineage-CD11b+ monocytes; i.m. or i.p. routes, doses of b403, FIG. 9) was “Upregulation of circulating monocytes numbers”, the “dose enough to trigger an increase of the monocyte count compared to PBS” value (Lineage-CD11b+ monocytes; [1]) was 1 µg and the “dose of maximum response (monocyte count)” value (Lineage-CD11b+ monocytes; [1]) was 10 µg. The “effect on monocyte count at 20 μg dose” value (Lineage-CD11b+ monocytes; single i.m. injection, FIG. 12) was “down modulated”, the “behaviour as assessed by T water maze testing” value (APPSwe/PS1 mice; Example 21: twelve weekly injections, CRX527, CRX601 20 μg i.p., 3D MPL 50 μg i.p., AS01B 1/10th human dose i.m., FIG. 24) was “significant improvements in behaviour” and the “cognitive functions, T-water maze vs PBS-treated control group” value (APPSwe/PS1 mice; Example 22, i.m. 12× weekly: CRX601 2 μg, CRX601 2 ug in AS03, 3D MPL 5 ug, AS01B 1/10 human dose, unpaired t-tests, FIG. 27A) was “significant improvement of their cognitive functions”.
